Test results: patent US20060025566A1, “Macrocyclic modulators of the ghrelin receptor” (Tranzyme Pharma Inc., priority 2003, published 2006)
Where two headings read alike, the source gives them in different places.

Legend:
[1] = biological target: T1, human growth hormone secretagogue receptor (hGHS-R1a) (Homo sapiens, UniProt Q92847); assay: Competitive radioligand binding assay (ghrelin receptor), [125I]-ghrelin displacement on GHS-R/HEK 293 membranes; conditions: read-out: Ki
T1 construct: purchased PerkinElmer BioSignal #RBHGHSM, lot#1887; host or cells: HEK-293, stably transfected (membranes)
T1 sequence (Q92847 whole entry): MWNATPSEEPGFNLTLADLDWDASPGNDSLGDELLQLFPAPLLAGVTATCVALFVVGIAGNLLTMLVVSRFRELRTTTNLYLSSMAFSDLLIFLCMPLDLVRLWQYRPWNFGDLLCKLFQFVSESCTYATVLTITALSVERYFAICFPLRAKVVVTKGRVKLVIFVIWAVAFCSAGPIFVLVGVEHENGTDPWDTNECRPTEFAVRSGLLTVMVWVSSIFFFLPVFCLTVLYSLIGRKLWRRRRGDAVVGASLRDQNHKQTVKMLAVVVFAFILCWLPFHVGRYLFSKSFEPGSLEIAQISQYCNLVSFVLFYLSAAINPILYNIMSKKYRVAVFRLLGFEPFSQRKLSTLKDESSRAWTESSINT

motilin receptor = motilin receptor (Homo sapiens, UniProt O43193); assay: Selectivity for the ghrelin receptor versus the motilin receptor; assay type: binding
Sequence of motilin receptor (O43193 whole entry): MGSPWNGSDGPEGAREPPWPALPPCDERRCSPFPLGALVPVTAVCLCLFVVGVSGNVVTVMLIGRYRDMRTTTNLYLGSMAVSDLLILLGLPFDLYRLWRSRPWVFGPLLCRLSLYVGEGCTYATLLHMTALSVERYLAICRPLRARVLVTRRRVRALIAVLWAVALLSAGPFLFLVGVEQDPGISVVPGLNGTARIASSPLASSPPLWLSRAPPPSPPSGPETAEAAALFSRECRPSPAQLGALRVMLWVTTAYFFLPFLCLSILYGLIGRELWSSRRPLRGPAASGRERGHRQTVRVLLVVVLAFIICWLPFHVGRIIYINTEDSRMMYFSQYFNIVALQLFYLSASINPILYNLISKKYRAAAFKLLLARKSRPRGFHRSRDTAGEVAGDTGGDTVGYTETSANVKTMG
Description: The level of agonist activity and selectivity for representative compounds of the invention are shown below in Table 4.

[2] = biological target: human ghrelin receptor (hGHS-R1a) (Homo sapiens, UniProt Q92847); assay: Aequorin functional assay (ghrelin receptor), CHO-K1 cells co-expressing Gα16 and aequorin; assay type: cell-based; conditions: functional (agonist) activity, standard method; TFA salts unless otherwise noted
Sequence of human ghrelin receptor (hGHS-R1a) (Q92847 whole entry): as the sequence (Q92847 whole entry) above
Description: Coelenterazine (Molecular Probes, Leiden, The Netherlands). […] Compound Handling
• 1. […] Key Aspects of Method • 1. […] Results

[3] = tested on: gastric emptying in fasted rats; assay: Gastric emptying in fasted rats (phenol red methylcellulose meal); assay type: in vivo, rat
Protocol: To examine the effects of compounds of the invention in a model for gastroparesis, compounds were evaluated for possible effects on gastric emptying in fasted rats.
GHRP-6 and test samples were dissolved in vehicle of 9% HPBCD/0.9% NaCl. Immediately following oral administration of methylcellulose (2%) containing phenol red (0.05%) (2 mL/rat), test substances or vehicle (9% HPBCD/0.9% NaCl) were each administered intravenously (i.v.) at a dosing volume of 5 mL/kg.
Male Wistar rats were provided by LASCO (A Charles River Licensee Corporation, Taiwan). Space allocation for 6 animals was 45×23×15 cm. Animals were housed in APEC® cages and maintained in a controlled temperature (22° C.-24° C.) and humidity (60%-80%) environment with 12 h light, 12 h dark cycles for at least one week in the laboratory prior to being used. Free access to standard lab chow for rats (Lab Diet, Rodent Diet, PMI Nutrition International, USA) and tap water was granted. All aspects of this work including housing, experimentation and disposal of animals were performed in general accordance with the Guide for the Care and Use of Laboratory Animals (National Academy Press, Washington, D.C., 1996).
Test substances were each administered intravenously to a group of 5 O/N-fasted Wistar derived male rats weighing 200±20 g immediately after methylcellulose (2%) containing phenol red (0.05%) was administered orally at 2 mL/animal. […] Following protein precipitation by 20% trichloroacetic acid (0.5 mL) and re-alkalization of the supernatant with 0.1 N NaOH, total phenol red remaining in the stomach was determined by a colorimetric method at 560 nm. A 30 percent or more (≧30%) increase in gastric emptying, detected as the decrease in phenol red concentration in the stomach relative to the vehicle control group, is considered significant.
• 1. […] Total phenol red remaining in the stomach was quantified by a colorimetric method at 560 nm. • 5. A >30% increase in gastric emptying, detected based on the phenol red concentration in comparison to the control group, is considered significant. […]

morphine-treated rats = assay: Model of opioid-delayed gastric emptying and gastrointestinal transit (morphine) in rats; assay type: in vivo, rat; conditions: 3 mg/kg s.c., FIG. 16A
Description: 7. The Effect of Compounds of the Invention on Gastric Emptying and Gastrointestinal Transit in a Model of Opioid-Delayed Gastric Emptying
Opioid analgesics, such as morphine, are well known to delay gastrointestinal transit which is an important side-effect for this class of drugs. The clinical term for this syndrome is opioid bowel dysfunction (OBD). Importantly, patients recovering from abdominal surgery experience post-operative ileus that is further exacerbated by concomitant opioid therapy for post-surgical pain.
• 1. […] Methods • 1. Rats (male, Sprague-Dawley, 250-300 g) are implanted with jugular vein catheters to accommodate dosing of test articles. • 2. Overnight-fasted rats are administered morphine (3 mg/kg s.c.). • 3. […] Radioactivity (^99mTc) in each tissue isolate is measured as a means of measuring the transit of the meal. Results

[4] = Pharmacokinetic analysis in rats (i.v., s.c., p.o.); assay type: in vivo; conditions: rat, typical dose 2 mg/kg
Protocol: D. Pharmacokinetic Analysis of Representative Compounds of the Invention
Typical Dose • 1. Intravenous (i.v.): 2 mg/kg • 2. Subcutaneous (s.c): 2 mg/kg
Plasma Collection • 1. Same protocol for all dosing groups • 2.
Whole blood samples were chilled and immediately processed by centrifugation to obtain plasma.
Plasma samples were stored frozen (−70° C.) until analysis.

[5] = binding activity at the human ghrelin receptor, [125I]-ghrelin displacement
[6] = binding activity, standard method, TFA salts unless otherwise noted
[7] = binding activity at the human ghrelin receptor, [125I]-ghrelin competition, GHS-R/HEK 293 membranes

SMILES	Ki [1, 6] [nM]	Selectivity (motilin receptor)	EC50 [2] [nM]	Ki [1, 7] [nM]	other results
CC1C(=O)NC(Cc2ccc(F)cc2)C(=O)NCCCc2ncccc2OCCNC(C2CC2)C(=O)N1C (single isomer, unassigned) [306a]	10 to 100	714/1	1 to 100		Ki [1, 5]: 10 to 100 nM
CC1C(=O)NC(Cc2ccc(F)cc2)C(=O)NCC2CC2c2ccccc2OCCNC(C2CC2)C(=O)N1C (single isomer, unassigned) [389a]	10 to 100	450/1	100 to 1000		
CC(C)C[C@@H]1NCCOc2ccccc2C=CCNC(=O)[C@H](Cc2ccccc2Cl)NC(=O)C2(CCCC2)NC1=O (stereo in doubt) [compound 20]	0.1 to 10	1044/1	1 to 100	0.1 to 10	
CCCCC1NCCOc2ccccc2CCCNC(=O)C(Cc2ccccc2)NC(=O)CN(C)C1=O (stereo not drawn) [Compound 1]		142/1			
CCCC1NCCOc2ccccc2CCCNC(=O)C(Cc2ccccc2)NC(=O)C(C)N(C)C1=O (stereo not drawn) [Compound 4]	10 to 100	3012/1	1 to 100	10 to 100	
CCN(CC)CCNC(=O)c1cc(Cl)c(N)cc1OC [Metoclopramide, reference compound]					gastric emptying of a solid meal in naïve rat ([3]; i.v. immediately after meal, FIG. 14): significant gastric emptying
CN1CC[C@]23c4c5ccc(O)c4O[C@H]2[C@@H](O)C=C[C@H]3[C@H]1C5 [Morphine, morphine]					gastric emptying and intestinal transit (morphine-treated rats): significantly delayed gastric emptying and intestinal transit
CCCC1NCCOc2ccccc2CCCNC(=O)C(Cc2ccc(O)cc2)NC(=O)CN(C)C1=O (stereo not drawn) [compound 7]		>100/1			
C[C@@H]1C(=O)N[C@H](Cc2ccccc2)C(=O)NCCCc2ccccc2OCCN[C@@H](C2CC2)C(=O)N1C [compound 17]	0.1 to 10	2500/1	1 to 100	0.1 to 10	
CC(C)C1NCCOc2ccccc2C=CCNC(=O)C(Cc2ccccc2)NC(=O)C(C)N(C)C1=O (stereo not drawn) [compound 19]	100 to 1000	>1700/1			
CC(C)CC1NCCOc2ccccc2C=CCNC(=O)C(Cc2cccc(Cl)c2)NC(=O)C2(CCCC2)NC1=O (stereo not drawn) [compound 21]	0.1 to 10	1078/1	1 to 100	0.1 to 10	
CC[C@H](C)[C@@H]1NCCOc2ccccc2CCCNC(=O)[C@@H](Cc2cccc(Cl)c2)NC(=O)[C@@H](C)N(C)C1=O [compound 24]	0.1 to 10	3039/1		0.1 to 10	
CCC(C)C1NCCOc2ccccc2CCCNC(=O)C(Cc2ccc(Cl)cc2)NC(=O)C(C)N(C)C1=O (stereo not drawn) [compound 25]				0.1 to 10	gastric emptying ([3]; fasted rats, 30 μg/kg): demonstrated gastric emptying; increase in gastric emptying relative to the vehicle control group ([3]; fasted rats, 100 μg/kg i.v.): 39%; Clearance [4]: 67 mL/min/kg; Elimination (t1/2, min) [4]: 31 min
CC[C@H](C)[C@@H]1NCCOc2ccccc2CCCNC(=O)[C@@H](Cc2ccc(F)cc2)NC(=O)[C@@H](C)N(C)C1=O [compound 26]	0.1 to 10	>7700/1	1 to 100	0.1 to 10	
CCC(C)C1NCCOc2ccccc2CCCNC(=O)C(Cc2ccc(OC)cc2)NC(=O)C(C)N(C)C1=O (stereo not drawn) [compound 27]	0.1 to 10	>7100/1	1 to 100	0.1 to 10	
CC[C@H](C)[C@@H]1NCCOc2ccccc2CCCNC(=O)[C@@H](Cc2ccc3ccccc3c2)NC(=O)[C@@H](C)N(C)C1=O [compound 31]	0.1 to 10	4900/1	1 to 100	0.1 to 10	

SMILES	Ki [1, 6] [nM]	Selectivity (motilin receptor)	EC50 [2] [nM]	Ki [1, 7] [nM]	other results
CCC(C)C1NCCOc2ccccc2CCCNC(=O)C(Cc2cccs2)NC(=O)C(C)N(C)C1=O (stereo not drawn) [compound 34]		>1000/1			
CCCC1NCCOc2ccccc2C=CCNC(=O)C(Cc2ccccc2)NC(=O)C(C)N(C)C1=O (stereo not drawn) [compound 39]		3400/1			
CCC(C)C1NCCOc2ccccc2C=CCNC(=O)C(Cc2ccccc2)NC(=O)C(C)N(C)C1=O (stereo not drawn) [compound 40]		>3300/1			
CCC(C)C1NCCOc2ccccc2CCCNC(=O)C(Cc2ccccc2)NC(=O)C(C)N(CC)C1=O (stereo not drawn) [compound 43]	10 to 100	3700/1		10 to 100	
CCC(C)C1NCCOc2ccccc2CCCNC(=O)C(CC(C)C)NC(=O)C(C)N(C)C1=O (stereo not drawn) [compound 176]		105/1			
CCC(C)C1NCCOc2cccnc2CCCNC(=O)C(Cc2ccccc2)NC(=O)C(C)N(C)C1=O (stereo not drawn) [compound 177]		>100/1			
CCC(C)C1NCCOc2ccc(C(=O)O)cc2CCCNC(=O)C(Cc2ccccc2)NC(=O)C(C)N(C)C1=O (stereo not drawn) [compound 197]		100/1			
C[C@@H]1C(=O)N[C@H](Cc2ccc(O)c(C(C)(C)C)c2)C(=O)NCCCc2ccccc2OCCN[C@@H](C2CC2)C(=O)N1C [compound 311]	10 to 100	21/1			
CC1C(=O)NC(Cc2ccc(Cl)cc2Cl)C(=O)NCCCc2ccccc2OCCNC(C2CC2)C(=O)N1C (stereo not drawn) [compound 314]	0.1 to 10	>5500/1	1 to 100		Ki [1, 5]: 0.1 to 10 nM
O=C1NC/C=C/c2ccccc2OCCN[C@@H](C2CC2)C(=O)NC2(CCCC2)C(=O)N[C@H]1Cc1cccc(Cl)c1 [compound 346]	10 to 100		1 to 100		Ki [1, 5]: 10 to 100 nM
CCC(C)C1NCCCCCCCCNC(=O)C(Cc2cccc(Cl)c2)NC(=O)C2(CCCC2)NC1=O (stereo not drawn) [compound 363]		35/1			
CC1C(=O)NC(Cc2ccc(F)cc2)C(=O)NCCCc2cc(NS(C)(=O)=O)ccc2OCCNC(C2CC2)C(=O)N1C (stereo not drawn) [compound 374]		250/1			
CCC(C)C1NCCOc2ccc(F)cc2CCCNC(=O)C(Cc2cccc(Cl)c2)NC(=O)C2(CCCC2)NC1=O (stereo not drawn) [compound 382]		74/1			
CCC(C)C1NCCOc2ccccc2C2CC2CNC(=O)C(Cc2cccc(Cl)c2)NC(=O)C2(CCCC2)NC1=O (stereo not drawn) [compound 388]		400/1			
CC1COc2ccccc2CCCNC(=O)C(Cc2ccc(F)cc2)NC(=O)C(C)N(C)C(=O)C(C2CC2)N1 (stereo not drawn) [compound 394]		1700/1			
CCC(C)C1NCCOc2ccccc2CCCNC(=O)C(Cc2ccc(O)cc2)NC(=O)C(C)N(C)C1=O (stereo not drawn) [compound 445]	10 to 100		1 to 100		Ki ([1]; second table titled 3C (compounds 435-449), human ghrelin receptor): 10 to 100 nM
